We go through 2 compounds from ChEMBL document CHEMBL5303573, “Mapping human microbiome drug metabolism by gut bacteria and their genes” (Nature, 2019).

For the first data set the following is noted: bacteroides thetaiotaomicron, 12 h, 2 µM.
Description: The drug is tested on Bacteroides thetaiotaomicron strain: 3731 for biotransformation. The drug concentrations were measured before and after a 12-h incubation by liquid-chromatography-coupled mass spectrometry (LC–MS)
For `CC[C@H](C)C(=O)O[C@H]1CCC=C2C=C[C@H](C)[C@H](CC[C@@H]3C[C@@H](O)CC(=O)O3)[C@H]21` [MEVASTATIN], the “Bacterial Biotransformation” value is listed as “Compound metabolized”.

Regarding `CCOc1cc(CC(=O)N[C@@H](CC(C)C)c2ccccc2N2CCCCC2)ccc1C(=O)O` [REPAGLINIDE], the “Bacterial Biotransformation” value is reported as “Compound NOT metabolized”.

The nature of another data set: The drug is tested on Collinsella aerofaciens strain: ATCC25986 for biotransformation. The drug concentrations were measured before and after a 12-h incubation by liquid-chromatography-coupled mass spectrometry (LC–MS). The following applies: 2 µM.
On to `CC[C@H](C)C(=O)O[C@H]1CCC=C2C=C[C@H](C)[C@H](CC[C@@H]3C[C@@H](O)CC(=O)O3)[C@H]21` [MEVASTATIN], for which the “Bacterial Biotransformation” value is on record as “Compound metabolized”.

Regarding `CCOc1cc(CC(=O)N[C@@H](CC(C)C)c2ccccc2N2CCCCC2)ccc1C(=O)O` [REPAGLINIDE], the “Bacterial Biotransformation” value was “Compound metabolized”.

The next data set is described as follows: The drug is tested on Coprococcus comes strain: ATCC27758 for biotransformation. The drug concentrations were measured before and after a 12-h incubation by liquid-chromatography-coupled mass spectrometry (LC–MS). Type of data set: ADME. Set-up: dose 2 uM, timepoint 0 vs 12 hours. The following applies: 2 µM.
As for `CC[C@H](C)C(=O)O[C@H]1CCC=C2C=C[C@H](C)[C@H](CC[C@@H]3C[C@@H](O)CC(=O)O3)[C@H]21` [MEVASTATIN], the “Bacterial Biotransformation” value was “Compound metabolized”.

Consider `CCOc1cc(CC(=O)N[C@@H](CC(C)C)c2ccccc2N2CCCCC2)ccc1C(=O)O` [REPAGLINIDE], for which the “Bacterial Biotransformation” value is “Compound NOT metabolized”.

A short description of another data set: The drug is tested on Bifidobacterium longum subsp. Infantis strain: CCUG52486 for biotransformation. The drug concentrations were measured before and after a 12-h incubation by liquid-chromatography-coupled mass spectrometry (LC–MS). The note with it: 2 µM.
Take `CC[C@H](C)C(=O)O[C@H]1CCC=C2C=C[C@H](C)[C@H](CC[C@@H]3C[C@@H](O)CC(=O)O3)[C@H]21` [MEVASTATIN]: the “Bacterial Biotransformation” value is reported as “Compound metabolized”.

For the compound `CCOc1cc(CC(=O)N[C@@H](CC(C)C)c2ccccc2N2CCCCC2)ccc1C(=O)O` [REPAGLINIDE], the “Bacterial Biotransformation” value is given as “Compound NOT metabolized”.

The next data set in a line: The drug is tested on Bacteroides xylanisolvens strain: DSM18836 for biotransformation. The drug concentrations were measured before and after a 12-h incubation by liquid-chromatography-coupled mass spectrometry (LC–MS). The note with it: 2 µM.
`CC[C@H](C)C(=O)O[C@H]1CCC=C2C=C[C@H](C)[C@H](CC[C@@H]3C[C@@H](O)CC(=O)O3)[C@H]21` [MEVASTATIN]: the “Bacterial Biotransformation” value is reported as “Compound metabolized”.

Consider `CCOc1cc(CC(=O)N[C@@H](CC(C)C)c2ccccc2N2CCCCC2)ccc1C(=O)O` [REPAGLINIDE], for which the “Bacterial Biotransformation” value is “Compound metabolized”.

The next data set can be described thus: The drug is tested on Eubacterium hallii strain: DSM3353 for biotransformation. The drug concentrations were measured before and after a 12-h incubation by liquid-chromatography-coupled mass spectrometry (LC–MS). The following applies: anaerobutyricum hallii, 2 µM.
Take `CC[C@H](C)C(=O)O[C@H]1CCC=C2C=C[C@H](C)[C@H](CC[C@@H]3C[C@@H](O)CC(=O)O3)[C@H]21` [MEVASTATIN]: the “Bacterial Biotransformation” value is recorded as “Compound metabolized”.

Turning to `CCOc1cc(CC(=O)N[C@@H](CC(C)C)c2ccccc2N2CCCCC2)ccc1C(=O)O` [REPAGLINIDE], the “Bacterial Biotransformation” value is given as “Compound metabolized”.

A short description of a further data set: The drug is tested on Ruminococcus lactaris strain: ATCC29176 for biotransformation. The drug concentrations were measured before and after a 12-h incubation by liquid-chromatography-coupled mass spectrometry (LC–MS). The following applies: 2 µM.
For `CC[C@H](C)C(=O)O[C@H]1CCC=C2C=C[C@H](C)[C@H](CC[C@@H]3C[C@@H](O)CC(=O)O3)[C@H]21` [MEVASTATIN], the “Bacterial Biotransformation” value was “Compound metabolized”.

With `CCOc1cc(CC(=O)N[C@@H](CC(C)C)c2ccccc2N2CCCCC2)ccc1C(=O)O` [REPAGLINIDE], the “Bacterial Biotransformation” value is “Compound NOT metabolized”.

A further data set in a line: The drug is tested on Clostridium scindens strain: ATCC35704 for biotransformation. The drug concentrations were measured before and after a 12-h incubation by liquid-chromatography-coupled mass spectrometry (LC–MS). The note with it: 2 µM.
Take `CC[C@H](C)C(=O)O[C@H]1CCC=C2C=C[C@H](C)[C@H](CC[C@@H]3C[C@@H](O)CC(=O)O3)[C@H]21` [MEVASTATIN]: the “Bacterial Biotransformation” value was “Compound metabolized”.

Take `CCOc1cc(CC(=O)N[C@@H](CC(C)C)c2ccccc2N2CCCCC2)ccc1C(=O)O` [REPAGLINIDE]: the “Bacterial Biotransformation” value is listed as “Compound NOT metabolized”.

The next data set is described as follows: The drug is tested on Enterobacter cancerogenus strain: ATCC35316 for biotransformation. The drug concentrations were measured before and after a 12-h incubation by liquid-chromatography-coupled mass spectrometry (LC–MS). The following applies: 2 µM.
On to `CC[C@H](C)C(=O)O[C@H]1CCC=C2C=C[C@H](C)[C@H](CC[C@@H]3C[C@@H](O)CC(=O)O3)[C@H]21` [MEVASTATIN], for which the “Bacterial Biotransformation” value is on record as “Compound metabolized”.

With `CCOc1cc(CC(=O)N[C@@H](CC(C)C)c2ccccc2N2CCCCC2)ccc1C(=O)O` [REPAGLINIDE], the “Bacterial Biotransformation” value was “Compound NOT metabolized”.

A short description of the next data set: The drug is tested on Bacteroides fragilis strain: HMW615 for biotransformation. The drug concentrations were measured before and after a 12-h incubation by liquid-chromatography-coupled mass spectrometry (LC–MS). The note with it: 2 µM.
Take `CCOc1cc(CC(=O)N[C@@H](CC(C)C)c2ccccc2N2CCCCC2)ccc1C(=O)O` [REPAGLINIDE]: the “Bacterial Biotransformation” value is “Compound metabolized”.

The nature of a further data set: The drug is tested on Bacteroides finegoldii strain: DSM17565 for biotransformation. The drug concentrations were measured before and after a 12-h incubation by liquid-chromatography-coupled mass spectrometry (LC–MS). The note with it: 2 µM.
Consider `CC[C@H](C)C(=O)O[C@H]1CCC=C2C=C[C@H](C)[C@H](CC[C@@H]3C[C@@H](O)CC(=O)O3)[C@H]21` [MEVASTATIN], for which the “Bacterial Biotransformation” value is recorded as “Compound metabolized”.

In the case of `CCOc1cc(CC(=O)N[C@@H](CC(C)C)c2ccccc2N2CCCCC2)ccc1C(=O)O` [REPAGLINIDE], the “Bacterial Biotransformation” value was “Compound metabolized”.

A short description of the next data set: The drug is tested on Bacteroides caccae strain: ATCC43185 for biotransformation. The drug concentrations were measured before and after a 12-h incubation by liquid-chromatography-coupled mass spectrometry (LC–MS). The note with it: 2 µM.
Take `CC[C@H](C)C(=O)O[C@H]1CCC=C2C=C[C@H](C)[C@H](CC[C@@H]3C[C@@H](O)CC(=O)O3)[C@H]21` [MEVASTATIN]: the “Bacterial Biotransformation” value was “Compound metabolized”.

Another data set in a line: The drug is tested on Odoribacter splanchnicus strain: fecal isolate for biotransformation. The drug concentrations were measured before and after a 12-h incubation by liquid-chromatography-coupled mass spectrometry (LC–MS). The following applies: 2 µM.
As to `CC[C@H](C)C(=O)O[C@H]1CCC=C2C=C[C@H](C)[C@H](CC[C@@H]3C[C@@H](O)CC(=O)O3)[C@H]21` [MEVASTATIN], the “Bacterial Biotransformation” value is recorded as “Compound metabolized”.

With `CCOc1cc(CC(=O)N[C@@H](CC(C)C)c2ccccc2N2CCCCC2)ccc1C(=O)O` [REPAGLINIDE], the “Bacterial Biotransformation” value is given as “Compound NOT metabolized”.

For a further data set the following is noted: bacteroides intestinalis, 12 h, 2 µM.
Description: The drug is tested on Bacteroides intestinalis strain: DSM17393 for biotransformation. The drug concentrations were measured before and after a 12-h incubation by liquid-chromatography-coupled mass spectrometry (LC–MS)
`CC[C@H](C)C(=O)O[C@H]1CCC=C2C=C[C@H](C)[C@H](CC[C@@H]3C[C@@H](O)CC(=O)O3)[C@H]21` [MEVASTATIN]: the “Bacterial Biotransformation” value is on record as “Compound metabolized”.

As to `CCOc1cc(CC(=O)N[C@@H](CC(C)C)c2ccccc2N2CCCCC2)ccc1C(=O)O` [REPAGLINIDE], the “Bacterial Biotransformation” value is “Compound metabolized”.

A further data set can be described thus: The drug is tested on Clostridium sporogenes strain: ATCC15579 for biotransformation. The drug concentrations were measured before and after a 12-h incubation by liquid-chromatography-coupled mass spectrometry (LC–MS). The note with it: 2 µM.
With `CC[C@H](C)C(=O)O[C@H]1CCC=C2C=C[C@H](C)[C@H](CC[C@@H]3C[C@@H](O)CC(=O)O3)[C@H]21` [MEVASTATIN], the “Bacterial Biotransformation” value is “Compound metabolized”.

The conditions of another data set: parabacteroides distasonis, 12 h, 2 µM.
Description: The drug is tested on Parabacteroides distasonis strain: ATCC8503 for biotransformation. The drug concentrations were measured before and after a 12-h incubation by liquid-chromatography-coupled mass spectrometry (LC–MS)
For `CC[C@H](C)C(=O)O[C@H]1CCC=C2C=C[C@H](C)[C@H](CC[C@@H]3C[C@@H](O)CC(=O)O3)[C@H]21` [MEVASTATIN], the “Bacterial Biotransformation” value is given as “Compound metabolized”.

On to `CCOc1cc(CC(=O)N[C@@H](CC(C)C)c2ccccc2N2CCCCC2)ccc1C(=O)O` [REPAGLINIDE], for which the “Bacterial Biotransformation” value is “Compound metabolized”.

The conditions of a further data set: anaerostipes sp., 12 h, 2 µM.
Description: The drug is tested on Anaerostipes sp. strain: fecal isolate for biotransformation. The drug concentrations were measured before and after a 12-h incubation by liquid-chromatography-coupled mass spectrometry (LC–MS)
As to `CC[C@H](C)C(=O)O[C@H]1CCC=C2C=C[C@H](C)[C@H](CC[C@@H]3C[C@@H](O)CC(=O)O3)[C@H]21` [MEVASTATIN], the “Bacterial Biotransformation” value is given as “Compound metabolized”.

Turning to `CCOc1cc(CC(=O)N[C@@H](CC(C)C)c2ccccc2N2CCCCC2)ccc1C(=O)O` [REPAGLINIDE], the “Bacterial Biotransformation” value is “Compound NOT metabolized”.

A short description of a further data set: The drug is tested on Bacteroides fragilis strain: ATCC43859 for biotransformation. The drug concentrations were measured before and after a 12-h incubation by liquid-chromatography-coupled mass spectrometry (LC–MS). The note with it: 2 µM.
On to `CC[C@H](C)C(=O)O[C@H]1CCC=C2C=C[C@H](C)[C@H](CC[C@@H]3C[C@@H](O)CC(=O)O3)[C@H]21` [MEVASTATIN], for which the “Bacterial Biotransformation” value is recorded as “Compound NOT metabolized”.

Regarding `CCOc1cc(CC(=O)N[C@@H](CC(C)C)c2ccccc2N2CCCCC2)ccc1C(=O)O` [REPAGLINIDE], the “Bacterial Biotransformation” value is recorded as “Compound metabolized”.

Another data set is described as follows: The drug is tested on Providencia rettgeri strain: DSM1131 for biotransformation. The drug concentrations were measured before and after a 12-h incubation by liquid-chromatography-coupled mass spectrometry (LC–MS). The data set is classed as ADME. Set-up: dose 2 uM, timepoint 0 vs 12 hours. The note with it: 2 µM.
`CC[C@H](C)C(=O)O[C@H]1CCC=C2C=C[C@H](C)[C@H](CC[C@@H]3C[C@@H](O)CC(=O)O3)[C@H]21` [MEVASTATIN]: the “Bacterial Biotransformation” value is given as “Compound metabolized”.

Take `CCOc1cc(CC(=O)N[C@@H](CC(C)C)c2ccccc2N2CCCCC2)ccc1C(=O)O` [REPAGLINIDE]: the “Bacterial Biotransformation” value is given as “Compound NOT metabolized”.

The conditions of another data set: bacteroides fragilis, 12 h, 2 µM.
Description: The drug is tested on Bacteroides fragilis strain: 3397 (T10) for biotransformation. The drug concentrations were measured before and after a 12-h incubation by liquid-chromatography-coupled mass spectrometry (LC–MS)
In the case of `CC[C@H](C)C(=O)O[C@H]1CCC=C2C=C[C@H](C)[C@H](CC[C@@H]3C[C@@H](O)CC(=O)O3)[C@H]21` [MEVASTATIN], the “Bacterial Biotransformation” value is “Compound metabolized”.
